Test results taken from US7888319B2, “Compositions and methods for promoting wound healing and tissue regeneration” (MUSC Foundation for Research Development, priority 2004, dated 2011).
Ends that are not written are not given here.

Assays:
[1] = system: NIH-3T3 cells; experiment: In vitro scratch injury of NIH-3T3 monolayer (repopulation, PCNA immunolabeling); assay type: cell-based; conditions: 30 μM
Protocol: An NIH-3T3 monolayer was pre-treated with ACT 1 peptide (SEQ ID NO:2) for 24 hrs, and “scratch-injured” with a p200 pipette tip. The “scratch injury” was subsequently allowed to “heal” for 24 hours in the presence of (a, b) 30 μM ACT 1 peptide (SEQ ID NO:2), (c, d) 30 μM non-active control peptide (SEQ ID NO: 55), or (e, f) vehicle control solution containing no ACT peptide or control peptide. […] The repopulation of the “scratch injury” occurs in part via migration of the transformed cells crawling into the “scratch injury” area. Figures (b), (d) and (f) show proliferating cell nuclear antigen (PCNA) immunolabeling of cells in the “scratch injury” or at the injury edge.
NIH-3T3 fibroblasts were “scratch injured” and subject to the continuous presence of 30 μM ACT 1 peptide (SEQ ID NO:2) for 24 hours or the control conditions as outlined in FIG. 2. […] The cells have been labeled with fluorescent phalloidin to aid visualization. ACT peptide-treated cells show low levels of repopulation of the scratch injury area (white double headed arrows).
NIH-3T3 cells were grown over 2-3 days until forming a near-confluent monolayer on a tissue culture dish according to standard protocols and the monolayer was then pre-treated with ACT 1 peptide (SEQ ID NO:2) for 24 hrs, and “scratch-injured” with a p200 pipette tip. The “scratch injury” was subsequently allowed to repopulate for 24 hours in the presence of 30 μM ACT 1 peptide (SEQ ID NO:2) dissolved in the culture media (FIG. 2a, b) or in presence of two control conditions (FIG. 2c-f). In the first control condition, the “scratch-injured” cells were allowed to repopulate for 24 hours in the presence of a non-active control peptide (as in FIG. 1) dissolved in the culture media at a concentration of 30 μM (FIG. 2c, d). In the second control condition, phosphate buffered saline (PBS) was added to the culture media and the “scratch-injured” cells were allowed to repopulate in the presence of this vehicle control solution containing no ACT peptide or control peptide (FIG. 2e, f). […] The repopulation of the “scratch injury” occurs in part via migration of the transformed cells crawling into the “scratch injury” area. Figures (FIGS. 2b, d, and f) show proliferating cell nuclear antigen (PCNA) immunolabeling of cells in the “scratch injury” or at the injury edge.
The cells were labeled with fluorescent phalloidin to aid visualization. ACT peptide-treated cells show low levels of repopulation of the scratch injury area (white double headed arrows).

[2] = system: 8 mm wide circular excisional skin injuries; experiment: Large (8 mm) excisional skin injury in adult mice; assay type: in vivo, mouse
Protocol: Anesthetized adult mice had 8 mm wide circular excisional skin injuries made by fine surgical scissors down to the underlying muscle in the dorsal mid line between the shoulder blades (i.e., as shown in (a) an (b). The boundary of the injury was demarcated by an 8 mm wide circular template cut in a plastic sheet. 100 μl of a solution of 30% pluronic gel containing either no (control) or dissolved ACT 1 peptide (SEQ ID NO:2) at a concentration of 100 μM was then applied to the excisional injuries. Control or ACT peptide containing gel was applied subsequently 24 hours after the initial application. No further applications of control and ACT peptide containing gel were made after the second application. […] Note that images of the same injury on the same animal are shown at the different time points during the healing time course. […] Skin biopsies of the entire wound site were taken from some of the mice 24 hours following the excisional injury in the experiment described in FIG. 6. Figures (a) and (b) show low magnification survey views of cross-sections from near the center of the wound of control and ACT peptide treated injuries respectively. The wound edge (marked by the small arrows), bounded by skin of normal histological appearance, can be seen in both cases. A black rectangle is placed over the images in (a) and (b) at the left hand wound edge. The histological structures within these two rectangles are shown at higher magnification in (c) and (d) for control and ACT peptide treated tissues, respectively. Of most interest is a “collar-like” tissue of aligned fibrous material (arrowed) projecting from basal parts of the injury to or toward the wound edge and exterior surface of injury. The aligned fibrous substrate has the appearance of being much more organized in the control injury (d) than in the ACT peptide treated injury (c). […] This is confirmed in (e) and (f) where regions of histological section within the black rectangles shown in (c) and (d) are respectively shown at higher magnification. The inflammatory cells studding the aligned fibrous substrate include mast cells, neutrophils and macrophages. These inflammatory cells occur at much higher density in the control injury than in the ACT peptide treated injury. […] At the end of the 14 day period in the experiment described in FIG. 6, skin biopsies of the entire excisional injury were taken and histological sections from these skin samples were H&E histochemically stained. Figures (a) and (b) show low magnification survey views of cross-sections from near the center of the injury of ACT peptide and control respectively. The wound edge (marked by the small arrows), bounded by skin of normal histological appearance, can be seen in both cases. A black rectangle is placed over the images in (a) and (b) near the center of each injury. The histological structures within these two rectangles are shown at higher magnification in (c) and (d) for the ACT peptide and control tissues respectively. It is evident that tissue within the ACT peptide treated injury locus has considerably more complexity. […] By comparison, re-epithelization of the injury surface is incomplete and there is no sign of regenerating hair follicles in the epithelium of the control injury (d). […] As with, the hair follicles this tissue complexity was regenerated by differentiation of stem cells. […]

## RPRPDDLEI (not fully specified (N-terminus)) [ACT 1, carboxy-terminal 9 amino acids of human Cx43; amino terminus biotinylated in tests]
[1]; 24 hours after scratch
  proliferating cell nuclear antigen (PCNA) immunolabeling of cells in the scratch injury or at the injury edge: only low luminosity consistent with background and non-proliferation
[1]; 24 hours, vs control conditions, p<0.000001
  % area of cells repopulating the scratch injury after 24 hours: reduction of cells in the injury area in the presence of ACT peptide is dramatic
[2]; 100 μM in 30% pluronic gel, 100 μl, applied at 0 and 24 hours, 14 day time course, vs gel without peptide
  closure, inflammation, healing and scarring of injury: closed faster, was less inflamed in appearance, healed faster and scarred less
[2]; 100 μM, 14 days, H&E histology
  re-epithelization of the injured surface: re-epithelization of the injured surface is complete
  regenerating hair follicles in the new epithelium: regenerating hair follicles can already be seen
  restoration of tissue structural complexity beneath the reformed epithelium: considerable restoration of normal structural complexity
[2]; 100 μM, skin biopsy 24 hours after injury, H&E histology
  density of inflammatory cells studding the fibrous substrate at the wound edge: considerably lower density of inflammatory cells
